Here are results for one molecule from patent publication US20190262323A1, “COMPOSITIONS AND METHODS FOR TREATING NEURODEGENERATIVE DISORDERS” (GEORGETOWN UNIVERSITY, priority 2016, published 2019).

One experiment deals with Tau [pS396]. The experiment can be described thus: Human Tau [pS396] solid phase sandwich ELISA on brain tissue homogenates from treated transgenic APP mice. The format is in vivo. The protocol: (§1) Transgenic mice harboring the Swedish, Dutch, and Iowa mutation for human amyloid beta-precursor protein were treated with intraperitoneal (IP) injections of 10 mg/kg, 5 mg/kg, 2.5 mg/kg, 1.25 mg/kg of LCB 03-0110 or 30 μL of dimethylsulfoxide (DMSO) every day for 1 week. LCB 03-0110 is a potent inhibitor of discoidin domain receptor 2 (DDR2) family tyrosine kinases. All animal experiments were conducted in full compliance with the recommendations of Georgetown University Animal Care and Use Committee (GUAUC). Fifteen mice were used for brain and blood extractions, and fifteen mice were used for drug treatments. Four transgenic APP mice were treated with DMSO, four transgenic APP mice were treated with 10 mg/kg of LCB 03-0110, four transgenic APP mice were treated with 5 mg/kg of LCB 03-0110, four transgenic APP mice were treated with 2.5 mg/kg of LCB 03-0110, and three transgenic APP mice were treated with 1.25 mg/kg of LCB 03-0110. Seven transgenic APP mice were treated with DMSO, and 7 transgenic APP mice were treated with 2.5 mg/kg of LCB.
(§2) Animals were deeply anesthetized with a mixture of Xylazine and Ketamine (1:8). Whole blood (500 μl) was collected via cardiac puncture and centrifuged at 2000×g to precipitate blood cells. The serum was collected for mass spectrometric analysis. To wash out the remaining blood from vessels and reduce contamination, animals were perfused with 25 ml of 1X phosphate buffered saline (PBS) for 5 min and the brains were collected. A hemisphere was frozen and stored at −80° C. for mass spectrometry studies and the other hemisphere was immediately homogenized in 2.0 ml lysis buffer (containing protease and phosphatase inhibitors) and labeled as a soluble protein fraction.
Human Tau [pS396] solid phase sandwich ELISA was performed on brain tissue homogenates from transgenic APP mice treated with LCB 03-0110 at 10 mg/kg, 5 mg/kg, 2.5 mg/kg, and 1.25 mg/kg. A monoclonal Tau capture antibody was coated onto micro-wells. 50 μl of soluble lysate was added to each well, allowing the Tau [pS396] antigen to bind to the immobilized capture antibody, and incubated for two hours at room temperature. After the two hour incubation, samples were washed and incubated with 100 μl of rabbit monoclonal tau [pS396] detection antibody and incubated for one hour at room temperature. Following extensive washing, a 100 μl of horseradish peroxidase labeled anti-rabbit IgG was added to each well and incubated for thirty minutes at room temperature. Samples were washed to remove all unbound enzyme. […] The magnitude of the absorbance for this developed color was proportional to the quantity of Tau […] proteins in the brain tissue homogenates. […] All statistics were performed using ANOVA with Tukey multiple comparison post-test and data were expressed as Mean±SD.
(ELISA stands for enzyme-linked immunosorbent assay.)

Another experiment deals with cytokines and chemokines. Briefly: MILLIPLEX Mouse Cytokine/Chemokine Magnetic Bead Panel. As to conditions: 2.5 mg/kg or 1.25 mg/kg. The format is in vivo, transgenic APP mice. The protocol:
as §1
MILLIPLEX®: Cytokines and chemokines were measured in serum and brain with the Mouse Cytokine/Chemokine Magnetic Bead Panel (Cat MCYTOMAG-70K, EMD Millipore). Human amyloid beta and total tau was measured in brain using the Human Amyloid Beta and Tau Panel (Cat HNABTMAG-68K, EMD Millipore). AKT/mTOR signaling cascade phosphoproteins were measured using the Akt/mTOR Phosphoprotein Magnetic Bread 11-Plex Kit (Cat 48-611MAG, EMD Millipore). Assays were performed according to the manufacturer's protocols.

The subject of a further experiment is human amyloid beta. The experiment can be described thus: MILLIPLEX Human Amyloid Beta and Tau Panel, soluble and insoluble brain fractions. The format is in vivo, transgenic APP mice. As to conditions: 2.5 mg/kg daily for 3 weeks. The method, then:
as §1, with “Transgenic mice harboring the Swedish, Dutch, and Iowa mutation for human amyloid beta-precursor protein were treated with intraperitoneal (IP) injections of 10 mg/kg, 5 mg/kg, 2.5 mg/kg, 1.25 mg/kg of LCB 03-0110 or 30 μL of dimethylsulfoxide (DMSO) every day for 1 week.” left out
as §2
After removing the soluble supernatant, the tissue pellet was washed with 1×STEN buffer. […]
MILLIPLEX®: Cytokines and chemokines were measured in serum and brain with the Mouse Cytokine/Chemokine Magnetic Bead Panel (Cat MCYTOMAG-70K, EMD Millipore). Human amyloid beta and total tau was measured in brain using the Human Amyloid Beta and Tau Panel (Cat HNABTMAG-68K, EMD Millipore). AKT/mTOR signaling cascade phosphoproteins were measured using the Akt/mTOR Phosphoprotein Magnetic Bread 11-Plex Kit (Cat 48-611MAG, EMD Millipore). […]

`Oc1cccc(Nc2ccnc3cc(-c4cccc(CN5CCOCC5)c4)sc23)c1` [LCB 03-0110, 3-(2-(3-(morpholinomethyl)phenyl)thieno[3,2-b]pyridine-7-ylamino)phenol]: the “total Tau levels” value in the experiment on Tau [pS396] (10 mg/kg or less, 12-15 month old APP mice, after one week) is given as “does not alter”. The “level of phosphorylated Tau (pS396)” value in the experiment with Tau [pS396] (brain homogenate, 10 mg/kg or less (10, 5, 2.5, 1.25 mg/kg) IP daily for 1 week, vs DMSO) is reported as “reduces”. The “ratio of Tau (phosphorylated Tau (pS396)/total Tau)” value in the experiment on Tau [pS396] (brain homogenate, 10 mg/kg or less IP daily for 1 week, vs DMSO) is “reduces”. For the same molecule, the “reducing the ratio of Tau: lower dosages compared with higher dosages” value with Tau [pS396] (less than 2.5 mg/kg versus greater than 5.0 mg/kg) is on record as “more effective”. Also, in the experiment on cytokines and chemokines, the RANTES levels entry is on record as “does not alter”, the VEGF-A levels result is listed as “reduces VEGF-A to control levels”, the brain inflammation result is recorded as “reduced” and the “granulocyte colony-stimulating factor (G-CSF)” value is “reductions”. In the experiment on cytokines and chemokines, the “granulocyte-macrophage colony-stimulating factor (GM-CSF)” value is “reductions”, the “macrophage colony-stimulating factor (M-CSF)” value is given as “reductions”, the “macrophage inflammatory factor 1 alpha (MIP-1α)” value is “reductions” and the “macrophage inflammatory factor 1 beta (MIP-1β)” value is “reductions”. Besides, in the experiment on cytokines and chemokines, the “macrophage inflammatory protein 1 (MIP-1)” value is “reductions” and the “macrophage inflammatory protein 2 (MIP-2)” value was “reductions”. For the same molecule, in the experiment with human amyloid beta (brain), the “soluble human Aβ40 levels” value is reported as “significantly reduced” and the “soluble human Aβ42 levels” value is “significantly reduced”. Moreover, the “insoluble human Aβ42 levels” value with human amyloid beta (brains of APP mice) is on record as “significantly reduced”.
